Results published in patent publication US20240293579A1, “Composition Comprising Trim31 and Rhbdf2 for Treatment of NAFLD/NASH” (CHONGQING MEIPULAN TECHNOLOGY CO., LTD, priority 2021, published 2024).
Like-named read-outs stand apart in the source and are kept apart here.

How the values were obtained:
[1] = test system: Mice with a NASH phenotype (THTG-HFHF); assay: Carminic acid in mice with a NASH phenotype (THTG-HFHF), liver mRNA and protein levels; format: in vivo; details: 16 weeks
Text: (§1) To further investigate the protective effects of Trim31 on liver steatosis, a nonalcoholic steatohepatitis (NASH) mice model was established in accordance with previous reports (Xu Min-Xuan,Tan Jun, et al., Journal of Hazardous Materials, 2020, 400: 123158). The THTG mice were then fed with HFHF diet (14% protein, 42% fat, 44% carbohydrates, 0.2% cholesterol and with a total of 42 g/L of carbohydreate mixed in drinking water at a ratio of 55% fructose and 45% sucrose by weight) for 16 weeks to produce phenotype of NASH. Also, the NTG mice used in this design as controls and were synchronously allowed to ad libitum access to this diet for 16 weeks.
(§2) Based on the effective protective effect of Trim31 in NAFLD, we accordingly investigated the therapeutic feasibility and effect of targeting the Trim31-Rhbdf2-MAP3K7 pathway in the development and progression of NASH. The THTG mice were then fed with an HFHF diet containing 14% protein, 42% fat, 44% carbohydrates, and 0.2% cholesterol and with a total of 42 g/L of carbohydrate mixed in drinking water at a ratio of 55% fructose and 45% sucrose by weight, for 16 weeks to generate mice with a NASH phenotype (THTG-HFHF).
Mice with a NASH phenotype (THTG-HFHF) were constructed according to the protocol described in Example 10. The control group (Ctrl), NASH-THTG group (Fru), low dose group (CAL, 0.5% CA+Fru), high dose group (CAH, 1% CA+Fru) were set up. The drug group was treated with 0.5% and 1% carminic acid (CA) by gavage.

TRIM31 mRNA = TRIM31 mRNA expression by RT-qPCR in PA/OA-induced L02 cells; format: cell-based, human; details: for fold induction at 100 µM: Homo sapiens
Experimental: Palmitic acid/oleic acid (PA/OA) was used to induce the decrease of TRIM31 mRNA expression in human hepatocyte L02 cells. The cells were divided into control group and drug group. The drug group was treated with a concentration of 100 μmol/L compound, and the expression level of TRIM31 mRNA was detected by RT-qPCR. The expression level of TRIM31 mRNA in the drug group divided by that in the control group (Qdrug/Qctrl) was used to evaluate the ability of the compounds to promote TRIM31 expression. […]

[2] = test system: Mice with a NASH phenotype (THTG-HFHF); assay: Fisetin in mice with a NASH phenotype (THTG-HFHF), liver mRNA levels; format: in vivo; details: 16 weeks
Text: as §1, §2
Mice with a NASH phenotype (THTG-HFHF) were constructed according to the protocol described in Example 10. A control group (Ctrl), a NASH group (THTG), and three drug groups (FIS) were set up. The three drug groups (FIS) were treated with 20 mg/kg, 40 mg/kg and 80 mg/kg fisetin (FIS) by gavage.

[3] = test system: Mice with a NASH phenotype (THTG-HFHF); assay: Betacyanin in mice with a NASH phenotype (THTG-HFHF), liver protein expression; format: in vivo; details: 0.2 g/kg mixed with feed, 16 weeks
Text: as §1, §2
Mice with a NASH phenotype (THTG-HFHF) were constructed according to the protocol described in Example 10. A control group (Ctrl), a NASH group (THTG), and a drug group (BCN) were set up. The drug group was fed with 0.2 g/kg betacyanin (BCN) mixed with feed.

[4] = 100 μmol/L compound, PA/OA-induced L02 cells, RT-qPCR, read-out: Qdrug/Qctrl (TRIM31 mRNA expression level, drug group divided by control group)
[5] = L02, read-out: Qdrug/Qctrl (TRIM31 mRNA expression level, drug group divided by control group)
[6] = 100 μmol/L compound, PA/OA-induced L02 cells, RT-qPCR

With Cc1c(C(=O)O)c(O)cc2c1C(=O)c1c(O)c([C@@H]3O[C@H](CO)[C@@H](O)[C@H](O)[C@H]3O)c(O)c(O)c1C2=O [Carminic acid] the “Collagen I mRNA level in liver” value ([1]; 0.5% and 1% CA by gavage) was “significantly decreased”, the “Keap1 protein in liver” value ([1]; 0.5% and 1% CA by gavage) was “significantly decreased” and the “MMP-9 mRNA level in liver” value ([1]; 0.5% and 1% CA by gavage) was “significantly decreased”. For the same compound, the “TGF-β1 mRNA level in liver” value ([1]; 0.5% and 1% CA by gavage) was “significantly decreased”, the “TRIM31 protein expression in liver” value ([1]; 0.5% and 1% CA by gavage) was “significantly increased” and the “α-SMA mRNA level in liver” value ([1]; 0.5% and 1% CA by gavage) was “significantly decreased”. For the same compound, the “liver fibrosis and inflammation” value ([1]; gavage) was “effectively alleviated”, the “these indexes (fibrosis genes, Keap1, TRIM31) versus control group” value ([1]; high dose group (CAH, 1% CA)) was “close to the normal level of the control group” and the fold induction at 100 µM (TRIM31 mRNA; [4]) was 2.78.
With O=c1c(O)c(-c2ccc(O)c(O)c2)oc2cc(O)ccc12 [Fisetin] the “Collagen I mRNA level in liver” value ([2]; 20, 40 and 80 mg/kg by gavage) was “significantly decreased”, the “Fibronectin mRNA level in liver” value ([2]; 20, 40 and 80 mg/kg by gavage) was “significantly decreased” and the “TGF-β1 mRNA level in liver” value ([2]; 20, 40 and 80 mg/kg by gavage) was “significantly decreased”. For the same compound, the “TRIM31 mRNA level in liver” value ([2]; 20, 40 and 80 mg/kg by gavage) was “significantly increased”, the “α-SMA mRNA level in liver” value ([2]; 20, 40 and 80 mg/kg by gavage) was “significantly decreased” and the “liver fibrosis and inflammation” value ([2]; gavage) was “significantly alleviated”. The “these indexes (fibrosis gene and TRIM31 mRNA levels) versus control group” value ([2]; high dose group (80 mg/kg)) was “close to the normal level of the control group” and the fold induction at 100 µM (TRIM31 mRNA; [4]) was 3.27.
Compound C[C@@H]1O[C@@H](OC[C@H]2O[C@@H](Oc3c(-c4ccc(O)c(O)c4)oc4cc(O)cc(O)c4c3=O)[C@H](O)[C@@H](O)[C@@H]2O)[C@H](O)[C@H](O)[C@H]1O [Rutin] has a fold induction at 100 µM (TRIM31 mRNA; [4]) of 2.86.
For O=c1cc(-c2ccc(O)cc2)oc2cc(O)c(O)c(O)c12 [Scutellarein], the fold induction at 100 µM (TRIM31 mRNA; [5]) was 3.2.
In the case of COC(=O)C1=CO[C@@H](C)[C@H]2Cn3ccc4c5ccccc5nc-4c3C[C@H]12 [Serpentine], the “Qdrug/Qctrl (TRIM31 mRNA expression level, drug group divided by control group)” value (TRIM31 mRNA; [6]) is reported as 1.33 fold.
Work on COc1cc(C2Oc3cc([C@H]4Oc5cc(O)cc(O)c5C(=O)[C@@H]4O)ccc3OC2CO)ccc1O (stereo partly drawn) [Silibinin] yielded a fold induction at 100 µM (TRIM31 mRNA; [4]) of 3.12.
O=C1CCC[C@@H]2[C@H]3CCCN4CCC[C@@H](CN12)[C@@H]34 [Sophocarpidine] was tested, and the “Qdrug/Qctrl (TRIM31 mRNA expression level, drug group divided by control group)” value (TRIM31 mRNA; [6]) was 1.30 fold.
CNC(=O)c1cc(Oc2ccc(NC(=O)Nc3ccc(Cl)c(C(F)(F)F)c3)cc2)ccn1 [Sorafenib, reference compound] gave a fold induction at 100 µM (TRIM31 mRNA; [4]) of 2.86.
For C[C@H](CCC(=O)NCCS(=O)(=O)O)[C@H]1CC[C@H]2[C@@H]3[C@H](O)C[C@@H]4C[C@H](O)CC[C@]4(C)[C@H]3CC[C@]12C [Taurochenodeoxycholic acid], the “Qdrug/Qctrl (TRIM31 mRNA expression level, drug group divided by control group)” value (TRIM31 mRNA; [6]) was 2.51 fold.
C[C@H](CCC(=O)NCCS(=O)(=O)O)[C@H]1CC[C@H]2[C@@H]3[C@@H](O)C[C@@H]4C[C@H](O)CC[C@]4(C)[C@H]3CC[C@]12C [Tauroursodeoxycholic acid, reference compound] gave a fold induction at 100 µM (TRIM31 mRNA; [4]) of 2.77.
Work on COc1cc2c(cc1OC)[C@@H]1Cc3ccc(OC)c(OC)c3CN1CC2 [Tetrahydropalmatine] yielded a fold induction at 100 µM (TRIM31 mRNA; [5]) of 1.76.
For COc1ccc2cc1Oc1ccc(cc1)C[C@H]1c3cc(c(OC)cc3CCN1C)Oc1c(OC)c(OC)cc3c1[C@H](C2)N(C)CC3 [Tetrandrine], the fold induction at 100 µM (TRIM31 mRNA; [4]) was 1.56.
For O=C1CCC(N2C(=O)c3ccccc3C2=O)C(=O)N1 (stereo not drawn) [Thalidomide, reference compound], the fold induction at 100 µM (TRIM31 mRNA; [5]) was 1.88.
COc1cc(-c2cc(=O)c3c(O)cc(O)cc3o2)cc(OC)c1O [Tricin] showed a fold induction at 100 µM (TRIM31 mRNA; [5]) of 2.9.
Work on C[C@H](CCC(=O)O)[C@H]1CC[C@H]2[C@@H]3[C@@H](O)C[C@@H]4C[C@H](O)CC[C@]4(C)[C@H]3CC[C@]12C [Ursodesoxycholic acid, reference compound] yielded a fold induction at 100 µM (TRIM31 mRNA; [4]) of 2.85.
COc1c(O)cc(O)c2c(=O)cc(-c3ccccc3)oc12 [Wogonin] was tested, and the fold induction at 100 µM (TRIM31 mRNA; [4]) was 3.05.
O=c1cc(-c2ccc(O)c(O)c2)oc2cc(O[C@@H]3O[C@H](CO)[C@@H](O)[C@H](O)[C@H]3O)cc(O)c12 [luteolin 7-O-β-D-glucoside] was tested, and the “Qdrug/Qctrl (TRIM31 mRNA expression level, drug group divided by control group)” value (TRIM31 mRNA; [6]) was 2.83 fold.
With Anthocyanidin the “Qdrug/Qctrl (TRIM31 mRNA expression level, drug group divided by control group)” value (TRIM31 mRNA; [6]) was 3.68 fold.
For Betacyanin, the “Collagen I protein expression level in liver” value [3] was “significantly reduced”, the “Keap1 protein expression level in liver” value [3] was “significantly reduced” and the “TGF-β1 protein expression level in liver” value [3] was “significantly reduced”. The “TRIM31 protein expression in liver” value [3] was “increased”, the “liver fibrosis and inflammation” value [3] was “effectively alleviated” and the “Qdrug/Qctrl (TRIM31 mRNA expression level, drug group divided by control group)” value (TRIM31 mRNA; [6]) was 3.14 fold.
Breviscapine was tested, and the “Qdrug/Qctrl (TRIM31 mRNA expression level, drug group divided by control group)” value (TRIM31 mRNA; [6]) was 3.29 fold.
With Catechin the “Qdrug/Qctrl (TRIM31 mRNA expression level, drug group divided by control group)” value (TRIM31 mRNA; [6]) was 3.21 fold.
In the case of Cynarascoloside C, the “Qdrug/Qctrl (TRIM31 mRNA expression level, drug group divided by control group)” value (TRIM31 mRNA; [6]) is reported as 2.34 fold.
In the case of Orixine, the “Qdrug/Qctrl (TRIM31 mRNA expression level, drug group divided by control group)” value (TRIM31 mRNA; [6]) is reported as 1.69 fold.
For Proanthocyanidin, the “Qdrug/Qctrl (TRIM31 mRNA expression level, drug group divided by control group)” value (TRIM31 mRNA; [6]) was 3.12 fold.
With Punicosides the “Qdrug/Qctrl (TRIM31 mRNA expression level, drug group divided by control group)” value (TRIM31 mRNA; [6]) was 2.64 fold.
